Source: PMC8724216, “Biochemical and structural characterization of beta-carbonic anhydrase from the parasite Trichomonas vaginalis” (Journal of Molecular Medicine (Berlin, Germany), 2021)

Molecular target: T1, TvaCA2 (Trichomonas vaginalis, UniProt A2DLG4)
T1 construct: gene TVAG_268150; recombinant in E. coli BL21 Star (DE3), pBVboostFG; 6xHis-tag removed by thrombin; 185 residues; homodimer, zinc
T1 sequence (A2DLG4 1-184): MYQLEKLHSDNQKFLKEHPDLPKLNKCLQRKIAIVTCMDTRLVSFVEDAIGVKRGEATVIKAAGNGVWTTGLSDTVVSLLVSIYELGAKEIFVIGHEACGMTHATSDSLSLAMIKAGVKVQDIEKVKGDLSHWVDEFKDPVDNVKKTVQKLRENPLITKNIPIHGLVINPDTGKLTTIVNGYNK
Assay: biochemical
Parameters: stopped-flow CO2 hydration, phenol red absorbance at 557 nm, 20 °C, pH 7.5, 15 min preincubation
Conditions: inhibitor; read-out: TvaCA2 β
Experimental: CA-catalyzed CO2 hydration activity was investigated with an Applied Photophysics stopped-flow instrument at 20 °C [20]. Twenty millimolar Hepes was used as buffer (pH 7.5) with 20 mM Na2SO4 (for maintaining a constant ionic strength). Phenol red of 0.2 mM was used as a pH indicator, working at a maximum absorbance of 557 nm. The initial rates of the CA-catalyzed CO2 hydration reaction were followed for 10–100 s. CO2 concentrations of 1.7–17 mM were used to determine the kinetic parameters and inhibition constants. For each inhibitor, the initial velocity was determined by using ≥ 6 traces of the initial 5–10% of the reaction. The uncatalyzed rates were determined similarly and subtracted from the total observed rates. DSMO was used at 5% to make the stock solution, from which 0.1 mM inhibitor solutions were prepared in dH2O. Subsequently, dilutions up to 0.01 nM were prepared with dH2O. Inhibitor and enzyme solutions were preincubated together (15 min, room temperature) prior to the assay to allow the formation of the enzyme–inhibitor complex. The inhibition constants were obtained by nonlinear least-squares methods using PRISM 3 and represent the means from ≥ 3 different measurements. The gene sequence of the second β-CA of T. vaginalis (TvaCA2) was retrieved from Universal Protein Resource Database UniProt (protein entry A2DLG4). An Escherichia coli expression system with a multipromoter vector, pBVboostFG (Online Resource 1), was used for the expression of TvaCA2. Gene synthesis and subcloning were performed by GeneArt (Thermo Fisher Scientific, Waltham, USA). The cells (OneShot® BL21 Star™ (DE3) Chemically Competent Cells, #C601003, Thermo Fisher Scientific, Waltham, USA) were cultured in an orbital shaker (200 rpm, 37 °C) in Luria–Bertani (LB) medium supplemented with 10 mg/mL gentamicin (1:1000). The cells were harvested via centrifugation (4 °C, 15 min, 5000 × g) after reaching an optical density of 0.4–0.6, and they were mechanically disrupted with an EmulsiFlex-C3 homogenizer (AVESTIN, Ottawa, Canada) in 50 mM Na2HPO4, 0.5 M NaCl, and 50 mM imidazole binding buffer (BB; pH 8.0), and centrifuged (13,000 × g, 15 min, 4 °C). […] After incubation, the resin was packed into a chromatography column with an EMD Millipore™ vacuum filtering flask (#XX1004705, Merck, Darmstad, Germany). The protein was eluted with 50 mM Na2HPO4, 0.5 M NaCl, and 350 mM imidazole (pH 7.0). The 6xHis-tag was removed by thrombin (#RECOMT, Sigma-Aldrich, St. Louis, USA) according to the Thrombin CleanCleave™ Kit manual (Sigma-Aldrich, St. Louis, USA) followed by Ni^2+-NTA affinity chromatography. NanoDrop One (Thermo Fisher Scientific, Waltham, USA) was used to determine the protein yield, and the quality of the purified protein was analyzed by SDS-PAGE (sodium dodecyl sulfate–polyacrylamide gel electrophoresis) using a 12% polyacrylamide gel visualized with PageBlue Protein staining solution (Thermo Fisher Scientific, #24,620, Waltham, USA). The obtained polypeptide bands of the SDS-PAGE gel were identified using tandem mass spectrometry (MS/MS; Meilahti Clinical Proteomics Core Facility, […]

Going from Nc1cccc(S(N)(=O)=O)c1 [compound 01] to Nc1nccc(Nc2ccc(S(N)(=O)=O)cc2)n1 [compound 19], the Ki rises from 3.93 µM to greater than 10 µM.

Compared with NS(=O)(=O)c1cc(Cl)cc(Cl)c1O [compound 10], NS(=O)(=O)c1ccc(CCNS(=O)(=O)c2ccc([N+](=O)[O-])cc2CO)cc1 [compound 21] is lower in Ki: greater than 10 µM for the first, 4.16 µM for the second. The second binds more tightly here.

Same assay, conditions: read-out: TvaCA2 β

In order of falling Ki:
1. NCCc1ccc(S(N)(=O)=O)cc1 [compound 06]  4.23 µM
2. NCc1ccc(S(N)(=O)=O)cc1 [compound 05]  4.19 µM
3. Nc1ccc(S(N)(=O)=O)cc1Cl [compound 08]  3.95 µM
4. Nc1ccc(S(=O)(=O)Nc2ccc(S(N)(=O)=O)cc2)cc1 [compound 22]  3.9 µM
5. Nc1ccc(S(=O)(=O)NCc2ccc(S(N)(=O)=O)cc2)cc1 [compound 23]  2.26 µM
6. NS(=O)(=O)c1ccc(C(=O)O)cc1 [compound 18]  1.63 µM
7. Cn1nc(S(N)(=O)=O)sc1=N [compound 14]  1.61 µM
8. Nc1ccc(S(N)(=O)=O)cc1 [compound 02]  1.29 µM
9. Cc1ccc(S(N)(=O)=O)cc1 [compound 04]  1.29 µM
10. Nc1ccc(S(N)(=O)=O)cc1F [compound 07]  1.29 µM
11. Nc1ccc(S(=O)(=O)Nc2nnc(S(N)(=O)=O)s2)cc1 [compound 20]  1.04 µM

Molecular target: T1, TvaCA2
Assay: stopped-flow CO2 hydration, phenol red
Type: biochemical
Conditions: read-out: TvaCA2 β

Compared with CCN[C@H]1CN(CCCOC)S(=O)(=O)c2sc(S(N)(=O)=O)cc21 [BRZ], CCN1CCCC1CNC(=O)c1cc(S(N)(=O)=O)ccc1OC (centres unmarked) [SLP, sulpride] is higher in Ki: 3.23 µM for the first, greater than 10 µM for the second. The first binds more tightly here.

Compared with NS(=O)(=O)c1nnc(NS(=O)(=O)c2ccccc2)s1 [BZA], NS(=O)(=O)c1cccc(S(N)(=O)=O)c1 [compound 3, 1,3-disulfamoyl benzene] is 9.4-fold lower in Ki: 4.21 µM for the first, 0.446 µM for the second.

Cc1ccc(-c2cc(C(F)(F)F)nn2-c2ccc(S(N)(=O)=O)cc2)cc1 [CLX, celecoxib] and Cc1onc(-c2ccccc2)c1-c1ccc(S(N)(=O)=O)cc1 [VLX, valdecoxib] cannot be ordered by Ki: greater than 10 µM for the first, greater than 10 µM for the second.

Compared with NS(=O)(=O)c1cc2c(cc1Cl)NCNS2(=O)=O [HCT], Nc1cc(Cl)c(S(N)(=O)=O)cc1S(N)(=O)=O [compound 12, 4-amino-6-chloro-1,3-benzenedisulfonamide] is 8-fold lower in Ki: 3.06 µM for the first, 0.382 µM for the second. The second binds more tightly here.

NS(=O)(=O)c1ccc(S(=O)(=O)Nc2cccc3c(Cl)c[nH]c23)cc1 [IND, indisulam] and NS(=O)(=O)c1ccc(N2CCCCS2(=O)=O)cc1 [SLT, sulthiame] cannot be ordered by Ki: greater than 10 µM for the first, greater than 10 µM for the second.

Compared with CC(=O)N=c1sc(S(N)(=O)=O)nn1C [MZA, methazolamide], Nc1nnc(S(N)(=O)=O)s1 [compound 13, 5-amino-1,3,4-thiadizole-2-sulfonamide] is 2.9-fold higher in Ki: 0.39 µM for the first, 1.15 µM for the second. The first binds more tightly here.

O=C1NS(=O)(=O)c2ccccc21 [SAC, saccharin] and NS(=O)(=O)Cc1noc2ccccc12 [ZNS, zonisamide] cannot be ordered by Ki: greater than 10 µM for the first, greater than 10 µM for the second.

CC1(C)O[C@@H]2[C@@H](CO[C@@]3(COS(N)(=O)=O)OC(C)(C)O[C@@H]23)O1 [TPM, topiramate] and Nc1ccc(S(N)(=O)=O)cc1Br [compound 9, 3-bromo-4-amino-benzenesulfonamide] cannot be ordered by Ki: greater than 10 µM for the first, greater than 10 µM for the second.

Nc1cc(C(F)(F)F)c(S(N)(=O)=O)cc1S(N)(=O)=O [compound 11, 4-amino-6-trifluoromethyl-benzene-1,3-disulfonamide] gave a Ki of 0.44 µM.
